Laboratory results: US20010056184A1, “Pipecolinic acid derivatives, method of manufacturing the same and therapeutic agents containing these compounds” (priority 2000, published 2001)
pIC50: −log10 of the molar value.

Experiments:
[1] = biological target: T1, human fibroblasts derived MMP-1 (type I collagenase) (Homo sapiens, UniProt P03956); experiment: MMP-1 (type I collagenase) inhibitory activities, fluorogenic substrate enzyme assay; format: biochemical; conditions: for pIC50: 37° C., 4 h, substrate 10 μM; for inhibition at 10 µM: at 10^−5M, NE means no effect, read-out: MMP-1 inhibition percent
T1 construct: human fibroblasts derived MMP-1 (Yagai Co. Ltd.) as enzyme; purchased Yagai Co. Ltd; host or cells: human fibroblasts
T1 sequence (P03956 100-469): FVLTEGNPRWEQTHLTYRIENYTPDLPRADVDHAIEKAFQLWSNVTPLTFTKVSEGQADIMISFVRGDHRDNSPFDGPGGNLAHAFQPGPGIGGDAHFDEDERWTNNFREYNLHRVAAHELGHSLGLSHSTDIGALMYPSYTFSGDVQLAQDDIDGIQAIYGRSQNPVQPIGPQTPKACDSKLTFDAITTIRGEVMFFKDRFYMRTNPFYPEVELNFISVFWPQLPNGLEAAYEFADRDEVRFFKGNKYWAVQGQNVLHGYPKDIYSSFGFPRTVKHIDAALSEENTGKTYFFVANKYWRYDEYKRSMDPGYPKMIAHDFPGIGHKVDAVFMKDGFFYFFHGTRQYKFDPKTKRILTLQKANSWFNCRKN
Method: Examination 1: MMP-1 (type I collagenase) inhibitory activities.
Inhibitory activities of MMP-1 (type I collagenase) activities were estimated by enzyme assay using human fibroblasts derived MMP-1 (Yagai Co. Ltd.) as enzyme, and MOCAc-Pro-Leu-Gly-Leu-A2pr(Dnp)-Ala-Arg-NH2 (Peptide Research Center, 3163-v) as substrate. Thus, MMP-1 (0.01 U/ml), test compound (10^−10˜10^−5 M), and the substrate (10 μM) were incubated in 50 mM Tris-HCl buffer (pH 7.4) containing 0.2M NaCl, 10 mM CaCl2, 0.02% NaN3, and 0.05% Brij 35 at 37° C. for 4 h. The reaction was stopped by adding of 4 volumes of sodium acetate buffer (pH 4.0), and the degradation of substrate was calculated by measurement with a fluorescence intensity (λ ex 328 nm, λ em 393 nm). Inhibition of degradation of substrate in the presence of compound was determined by comparison with the degradation percent of substrate in the absence of compound, and concentration of 50% inhibition (IC50 value) was calculated.

[2] = biological target: T2, MMP-2 (gelatinase A) (Homo sapiens, UniProt P08253); experiment: MMP-2 (gelatinase A) inhibitory activities, fluorogenic substrate enzyme assay; format: biochemical; conditions: 42° C., 2 h, substrate 10 μM
T2 construct: made in house; host or cells: COS-1 cells (secreted into culture medium)
T2 sequence (P08253 110-660): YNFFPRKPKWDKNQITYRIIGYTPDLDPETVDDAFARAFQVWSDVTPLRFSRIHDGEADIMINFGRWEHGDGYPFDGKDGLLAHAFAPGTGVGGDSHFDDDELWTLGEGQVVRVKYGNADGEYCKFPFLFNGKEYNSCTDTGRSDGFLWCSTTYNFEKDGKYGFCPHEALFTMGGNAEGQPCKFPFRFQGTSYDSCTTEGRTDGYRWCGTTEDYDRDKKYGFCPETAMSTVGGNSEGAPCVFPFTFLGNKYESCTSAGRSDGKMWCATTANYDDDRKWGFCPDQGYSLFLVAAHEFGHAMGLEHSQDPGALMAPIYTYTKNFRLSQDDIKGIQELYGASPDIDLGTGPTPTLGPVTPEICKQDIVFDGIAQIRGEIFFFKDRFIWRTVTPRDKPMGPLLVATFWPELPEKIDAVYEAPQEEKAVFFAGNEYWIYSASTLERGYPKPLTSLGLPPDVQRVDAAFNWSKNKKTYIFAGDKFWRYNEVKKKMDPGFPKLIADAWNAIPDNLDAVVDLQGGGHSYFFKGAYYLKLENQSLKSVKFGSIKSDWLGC
Method: (§1) Examination 2: MMP-2 (gelatinase A) and MMP-9 (gelatinase B) inhibitory activities.
(§2) Pro MMP-2 was obtained from culture medium separated from human pro-MMP-2 cDNA tranfected COS-1 cells. Pro MMP-2 activated by 1 mM (4-aminophenyl) mercury acetic acid and MMP-9, derived human fibrosarcome (Yagai Co. Ltd.), were used as enzyme respectively. Inhibition of both enzyme activities were estimated by enzyme assay using MOCAc-Pro-Leu-Gly-Leu-A2pr(Dnp)-Ala-Arg-NH2 (Peptide Research Center, 3163-v) as substrate. Thus, MMP-2 or MMP-9 (0.01 U/ml), test compound (several concentrations), and the substrate (10 μM) were incubated in 50 mM Tris - HCl buffer (pH 7.4) containing 0.2M NaCl, 10 mM CaCl2, 0.02% NaN3, and 0.05% Brij 35 at 42° C. for 2 h (MMP-2), 3 h (MMP-9) respectively. Inhibition of degradation of substrate in the presence of compound was determined by comparison with the degradation of substrate in the absence of compound, and concentration of 50% inhibition (IC50 value) was calculated.

[3] = biological target: T3, MMP-9 (gelatinase B) (Homo sapiens, UniProt P14780); experiment: MMP-9 (gelatinase B) inhibitory activities, fluorogenic substrate enzyme assay; format: biochemical; conditions: 42° C., 3 h, substrate 10 μM
T3 construct: MMP-9, derived human fibrosarcome (Yagai Co. Ltd.), were used as enzyme respectively; purchased Yagai Co. Ltd; host or cells: human fibrosarcoma
Method: as §1, §2

[4] = biological target: T4, Δ MT1-MMP (Δ MMP-14) (Homo sapiens, UniProt P50281); experiment: Δ MT1-MMP (Δ MMP-14) inhibitory activities, fluorogenic substrate enzyme assay; format: biochemical; conditions: 37° C., 30 min, substrate 10 μM; read-out: ΔMMP-14 IC50
T4 construct: ProMT1-MMP cDNA encoded extracellular domain of pro Δ MT1-MMP was tranfected E. coli BL21DE3; made in house; host or cells: E. coli BL21DE3 (inclusion bodies, 8M urea, ion exchange)
Text: Examination 3: Δ MT1-MMP (Δ MMP-14) inhibitory activities.
ProMT1-MMP cDNA encoded extracellular domain of pro Δ MT1-MMP was tranfected E. coli BL21DE3, pro Δ MT1-MMP collected as inclusion body was solved using 8M urea, and it was pulified by ion exchenge column chlomatography. Inhibition of enzyme activities were estimated by enzyme assay using activated Δ MT1-MMP, obtained from activation of pro Δ MT1-MMP by 10 μ/ml tripsine, and MOCAc-Pro-Leu-Gly-Leu-A2pr(Dnp)-Ala-Arg-NH2 (Peptide Research Center, 3163-v) as substrate. Thus, Δ MT1-MMP, test compound (several concentrations), and the substrate (10 μM) were incubated in 50 mM Tris - HCl buffer (pH 7.4) containing 0.2M NaCl, 10 mM CaCl2, 0.02% NaN3, 0.05% Brij 35, and 10 μM leuipeputine at 37° C. for 30 min. The reaction was stopped by adding of 4 volumes of sodium acetate buffer (pH 4.0), and the degradation of substrate was calculated by measurement with a fluorescence intensity (λ ex 328 nm, λ em 393 nm). Inhibition of degradation of substrate in the presence of compound was determined by comparison with the degradation of substrate in the absence of compound, and concentration of 50% inhibition (IC50 value) was calculated.

T3 sequence (P14780 94-707): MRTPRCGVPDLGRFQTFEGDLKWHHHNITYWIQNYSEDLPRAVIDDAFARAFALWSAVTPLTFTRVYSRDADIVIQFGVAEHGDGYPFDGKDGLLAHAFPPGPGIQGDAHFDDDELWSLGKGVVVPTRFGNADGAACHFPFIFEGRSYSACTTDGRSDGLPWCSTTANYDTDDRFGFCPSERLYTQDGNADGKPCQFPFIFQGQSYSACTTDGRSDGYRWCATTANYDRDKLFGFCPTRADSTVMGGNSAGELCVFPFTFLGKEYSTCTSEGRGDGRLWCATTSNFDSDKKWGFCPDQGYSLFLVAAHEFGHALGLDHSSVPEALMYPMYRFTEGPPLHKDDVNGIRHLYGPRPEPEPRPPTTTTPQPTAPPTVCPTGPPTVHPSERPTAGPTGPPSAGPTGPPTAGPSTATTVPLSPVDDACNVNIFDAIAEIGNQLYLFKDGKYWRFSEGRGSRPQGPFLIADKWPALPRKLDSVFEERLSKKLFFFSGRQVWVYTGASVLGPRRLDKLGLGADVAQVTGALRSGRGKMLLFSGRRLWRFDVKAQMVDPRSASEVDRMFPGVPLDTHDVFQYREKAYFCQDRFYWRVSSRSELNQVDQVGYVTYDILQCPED

| melting point [°C] | pIC50 [1] | pIC50 [2] | pIC50 [3] | pIC50 [4] | inhibition at 10 µM [1] [%] | SMILES |
| --- | --- | --- | --- | --- | --- | --- |
| > 250 | – | – | – | – | – | CCN[C@@H]1CCN(S(=O)(=O)c2ccc(-c3ccc(OC)cc3)cc2)[C@@H](C(=O)O)C1 [Compound 27, (2R, 4R)-2-Carboxy-4-ethylamino-1-[4-(4-methoxyphenyl)benzenesulfonyl]-piperidine] |
| > 250 | – | – | – | – | – | COc1ccc(C(=O)N[C@@H]2CCN(S(=O)(=O)c3ccc(-c4ccc(OC)cc4)cc3)[C@@H](C(=O)O)C2)cc1 [Compound 4, (2R, 4R)-2-Carboxy-4-(4-methoxybenzoylamino)-1-[4-(4-methoxyphenyl)benzenesulfonyl)-piperidine] |
| – | 6.34 | 8.74 | 7.96 | 7.00 | – | CC(C)CCC(=O)N[C@@H]1CCN(S(=O)(=O)c2ccc(-c3ccc(O)cc3)cc2)[C@@H](C(=O)NO)C1 [Compound 57, (2R, 4R)-2-Hydroxyaminocarbonyl-1-[4-(4-hydroxyphenyl)benzenesulfonyl]-4-(4-methylpentanoylamino) piperidine] |
| – | – | 6.32 | 6.13 | 5.64 | 32.2 | CC(C)CCC(=O)N[C@@H]1CCN(S(=O)(=O)c2ccc([N+](=O)[O-])cc2)[C@@H](C(=O)NO)C1 [Compound 77, (2R, 4R)-2-Hydroxyaminocarbonyl-4-(4-methylpentanoylamino)-1-(4-nitrobenzenesulfonyl)-piperidine] |
| – | – | 8.57 | 7.72 | 7.31 | 44.6 | COc1ccc(-c2ccc(S(=O)(=O)N3CC[C@@H](NCCCC(C)C)C[C@@H]3C(=O)NO)cc2)cc1 [Compound 61, (2R, 4R)-2-Hydroxyaminocarbonyl-1-[4-(4-methoxyphenyl)benzenesulfonyl]-4-(4-methylpentylamino)-piperidine] |
| – | 5.25 | 6.13 | 7.08 | 6.42 | – | CC(C)CCCN[C@@H]1CCN(S(=O)(=O)c2cccs2)[C@@H](C(=O)NO)C1 [Compound 70, (2R, 4R)-2-Hydroxyaminocarbonyl-4-(4-methylpentylamino)-1-(2-thiophenesulfonyl)-piperidine] |
| – | 5.60 | 7.82 | 7.80 | 6.05 | – | COc1ccc(-c2ccc(S(=O)(=O)N3CC[C@@H](NC(=O)c4ccc([N+](=O)[O-])cc4)C[C@@H]3C(=O)NO)cc2)cc1 [Compound 75, (2R, 4R)-2-Hydroxyaminocarbonyl-1-[4-(4-methoxyphenyl)benzenesulfonyl]-4-(4-nitrobenzoylamino)-piperidine] |
| – | – | 6.02 | 5.16 | 5.70 | 53 | CC(C)CCC(=O)N[C@@H]1CCN(S(=O)(=O)c2cccc(-c3ccc(O)cc3)c2)[C@@H](C(=O)NO)C1 [Compound 53, (2R, 4R)-2-Hydroxyaminocarbonyl-1-[3-(4-hydroxyphenyl)benzenesulfonyl]-4-(4-methylpentanoylamino)-piperidine] |
